# Target: T1, hSK2 channels (Homo sapiens, UniProt P0DP23+Q9H2S1)
# T1 construct: expressed in transfected cells; host or cells: HEK293
# Assay: Whole-cell patch-clamp recording of SK2 channel current (SC100)
# Format: cell-based
# Settings: Stimulating Concentration required for increasing the baseline current by 100%, HEK293 cells expressing hSK2; for SC100 uM: Table 3; for SC100 (μM): Table 4
# Description: The biological activity of certain compounds were determined as follows. The ionic current through small-conductance Ca^2+-activated K^+ channels (SK channels, subtype 2) is recorded using the whole-cell configuration of the patch-clamp technique in a classic patch-clamp set-up using HEK293 tissue culture cells expressing hSK2 channels as described in Kasumu et. al., Chemistry & Biology 19, 1340-1353, Oct. 26, 2012.
# The SC100 value determined is defined as the Stimulating Concentration required for increasing the baseline current by 100%.
SMILES,SC100 uM,SC100 (μM)
"FCc1ccn(-c2nc(Nc3ccc(F)cc3)cc(OC3COC3)n2)n1 [Compound 162, 2-(3-(fluoromethyl)-1H-pyrazol-1-yl)-N-(4-fluorophenyl)-6-(oxetan-3-yloxy)pyrimidin-4-amine]",++ (++ means 200 nM-1000 nM),–
"Cc1cn(-c2nc(Nc3ccc(F)cc3)cc(OC3COC3)n2)nc1CF [Compound 163, 2-(3-(fluoromethyl)-4-methyl-1H-pyrazol-1-yl)-N-(4-fluorophenyl)-6-(oxetan-3-yloxy)pyrimidin-4-amine]",++ (++ means 200 nM-1000 nM),–
"CC(=O)NCc1cc(Nc2ccc(F)cc2)nc(-n2cc(C)c(C(C)O)n2)c1 (stereo not drawn) [Compound 167, N-((2-((4-fluorophenyl)amino)-6-(3-(1-hydroxyethyl)-4-methyl-1H-pyrazol-1-yl)pyridin-4-yl)methyl)acetamide]",++ (++ means 200 nM-1000 nM),–
"Cc1cc(C)n(Cc2cc(Nc3ccc(F)cc3)nc(-n3ccc(CO)n3)c2)n1 [Compound 169, (1-(4-((3,5-dimethyl-1H-pyrazol-1-yl)methyl)-6-((4-fluorophenyl)amino)pyridin-2-yl)-1H-pyrazol-3-yl)methanol]",+ (+ means >1 uM),–
Cc1ccn(-c2nc(Nc3c(C)cccc3Cl)cc(C(C)O)n2)n1 (stereo not drawn) [IN10864-081-P1],–,+ (+ means >1 uM)
Cc1ccn(-c2nc(Nc3cccc(C(F)(F)F)c3)cc(C(C)O)n2)n1 (stereo not drawn) [IN10876-033-P1],–,++ (++ means 200 nM-1000 nM)
CC(=O)c1cc(Nc2cccc(C(F)(F)F)c2)nc(-n2ccc(C)n2)n1 [IN10876-038-P1],–,+ (+ means >1 uM)

# Second part, led by results:
SC100 uM,SMILES,SC100 (μM)
+++ (+++ means <200 nM),"CC(=O)NCc1cc(Nc2ccc(F)cc2)nc(-n2ccc(CF)n2)c1 [Compound 159, N-((2-(3-(fluoromethyl)-1H-pyrazol-1-yl)-6-((4-fluorophenyl)amino)pyridin-4-yl)methyl)acetamide]",–
+ (+ means >1 uM),"CC(=O)NCc1cc(Nc2ccc(F)cc2)nc(-n2ccc(C(F)F)n2)c1 [Compound 160, N-((2-(3-(difluoromethyl)-1H-pyrazol-1-yl)-6-((4-fluorophenyl)amino)pyridin-4-yl)methyl)acetamide]",–
+++ (+++ means <200 nM),"CC(=O)NCc1cc(Nc2ccc(F)cc2)nc(-n2cc(C)c(CF)n2)c1 [Compound 161, N-((2-(3-(fluoromethyl)-4-methyl-1H-pyrazol-1-yl)-6-((4-fluorophenyl)amino)pyridin-4-yl)methyl)acetamide]",–
+++ (+++ means <200 nM),"CC(=O)NCc1cc(Nc2ccc(Cl)cc2)nc(-n2ccc(CF)n2)c1 [Compound 164, N-((2-((4-chlorophenyl)amino)-6-(3-(fluoromethyl)-1H-pyrazol-1-yl)pyridin-4-yl)methyl)acetamide]",–
++ (++ means 200 nM-1000 nM),"CC(=O)NCc1cc(Nc2ccc(Cl)cc2)nc(-n2ccc(C(F)F)n2)c1 [Compound 165, N-((2-((4-chlorophenyl)amino)-6-(3-(difluoromethyl)-1H-pyrazol-1-yl)pyridin-4-yl)methyl)acetamide]",–
+ (+ means >1 uM),"CC(=O)NCc1cc(Nc2ccc(F)cc2)nc(-n2cc(C)c(CO)n2)c1 [Compound 166, N-((2-((4-fluorophenyl)amino)-6-(3-(hydroxymethyl)-4-methyl-1H-pyrazol-1-yl)pyridin-4-yl)methyl)acetamide]",–
+++ (+++ means <200 nM),"CC(=O)NCc1cc(Nc2ccc(F)cc2)nc(-n2cc(C)c(C(F)F)n2)c1 [Compound 168, N-((2-(3-(difluoromethyl)-4-methyl-1H-pyrazol-1-yl)-6-((4-fluorophenyl)amino)pyridin-4-yl)methyl)acetamide]",–
++ (++ means 200 nM-1000 nM),"Cc1cc(C)n(Cc2cc(Nc3ccc(F)cc3)nc(-n3ccc(CF)n3)c2)n1 [Compound 170, 4-((3,5-dimethyl-1H-pyrazol-1-yl)methyl)-6-(3-(fluoromethyl)-1H-pyrazol-1-yl)-N-(4-fluorophenyl)pyridin-2-amine]",–
